Molecules are shown by their SMILES.

The target in series [1] is T1, LRAT (Bos taurus, UniProt Q9BGL2).
T1 construct: bovine RPE microsomes are used as an enzyme source; from tissue; host or cells: bovine retinal pigment epithelium (membranes / microsomes)
T1 sequence (Q9BGL2 1-230): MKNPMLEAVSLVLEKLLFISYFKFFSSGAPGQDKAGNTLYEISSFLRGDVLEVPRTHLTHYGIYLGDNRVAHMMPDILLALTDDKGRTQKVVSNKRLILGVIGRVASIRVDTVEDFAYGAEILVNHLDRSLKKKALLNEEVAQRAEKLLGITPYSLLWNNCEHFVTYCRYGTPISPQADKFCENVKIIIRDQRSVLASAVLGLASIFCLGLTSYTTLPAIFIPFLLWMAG
The series can be described thus: In vitro LRAT assay, retinyl ester synthesis by bovine RPE membranes/microsomes. Format: biochemical. As to the method: We examined the effects on HPR on enzymes or proteins of the visual cycle using in vitro biochemical assays. Specifically, the utilization of exogenous all-trans retinol by membranes prepared from bovine RPE was studied. […] Steady-state levels of HPR in the RPE (determined from mice which have been given 20 mg/kg HPR, i.p., daily for 28 days) range from 5-10 μM. With this in mind, we examined the effects of 10 μM HPR on production of all-trans retinyl esters and 11-cis retinol in assays similar to those described above. […] In the presence of endogenous retinoids, utilization of exogenous all-trans retinol is extremely low and 11-cis retinol is produced solely from the endogenous all-trans retinyl esters. […] Thus, the retinoic acids appear to affect at least two targets in the visual cycle. We have determined that HPR-induced reduction of 11-cis retinol biosynthesis occurs via LRAT inhibition and reduction in all-trans retinyl ester levels. In this situation, the isomerase enzyme is starved for substrate and 11-cis retinol production declines.
A second target for HPR in the visual cycle was identified using in vitro biochemical assays. Lecithin retinol acyl transferase (LRAT) catalyzes the conversion of retinol into retinyl esters. LRAT is critical not only for retinol-retinyl ester homeostasis but also for generation of substrate for visual chromophore biosynthesis. The data shown in panel A of FIG. 16 illustrate the inhibitory effect of HPR on the rate of retinyl ester synthesis. In this assay, bovine RPE microsomes are used as an enzyme source and all-trans retinol (atROL) is the substrate. […] A secondary transformation (Eadie-Hofstee) of the kinetic data in panel A reveal that the mode of inhibition is competitive (see FIG. 16, panel B). Therefore, HPR competes with atROL for binding sites on LRAT. The apparent inhibition constant (Ki) was determined to be ˜6 μM. This means that at 6 μM HPR, the rate of retinyl ester synthesis would be decreased by 50%. In a separate study, we have determined that HPR concentrations in the RPE approach 10 μM with a 10 mg/kg dose of HPR.

The target in series [2] is T2, apo-CRALBP (Homo sapiens, UniProt P12271).
T2 construct: made in house
T2 sequence (P12271 whole entry, species assumed): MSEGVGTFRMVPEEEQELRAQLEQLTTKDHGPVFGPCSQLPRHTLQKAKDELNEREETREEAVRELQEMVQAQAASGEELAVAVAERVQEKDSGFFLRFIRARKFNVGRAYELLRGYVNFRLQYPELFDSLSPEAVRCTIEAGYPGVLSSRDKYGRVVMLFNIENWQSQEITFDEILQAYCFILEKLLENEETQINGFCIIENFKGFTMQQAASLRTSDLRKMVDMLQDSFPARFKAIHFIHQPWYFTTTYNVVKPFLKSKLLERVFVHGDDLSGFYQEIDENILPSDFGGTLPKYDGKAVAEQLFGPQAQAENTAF
The series can be described thus: Ni+ affinity column and spectroscopic analysis of binding to CRALBP. As to conditions: 10 μM apo-CRALBP, 20 μM ligand. The procedure: In order to confirm data obtained during fluorescence analysis of HPR binding to CRALBP, a second analysis was performed using affinity chromatography and spectroscopic analysis. The recombinant apo-CRALBP was constructed with a histidine tag which is utilized to purify the protein on a Ni+ affinity column following expression cloning. Here, we utilized this feature of apo-CRALBP to specifically “trap” the protein and any protein-ligand species for spectroscopic analysis. Two binding mixtures were prepared containing apo-CRALBP (10 μM) and either 11cRAL (20 μM) or HPR (20 μM). In control experiments for the analysis of non-specific ligand binding onto the affinity matrix, we prepared two additional mixtures containing only 11cRAL (20 μM) or HPR (20 μM) in binding buffer. The binding mixtures were passed through separate Ni+ affinity columns and the columns were washed extensively to elute unbound protein and ligand. Following the addition of elution buffer, the eluted fractions were analyzed by spectroscopy. […] Instead, two absorption maxima are seen: one at 280 nm and a second at 360 nm, which is attributable to the absorption of HPR (see FIG. 14).

Series [3] deals with RBP (Homo sapiens, UniProt P02753). The series can be described thus: Competition binding assay, RBP-retinol/HPR, fluorescence. To be noted: physiological temperature (37 C). The source says:
Based upon these findings, we sought to further explore the mechanism(s) of retinol reduction during HPR treatment. A tenable hypothesis is that HPR may displace retinol by competing at the retinol binding site on RBP. […] Therefore, one can measure displacement of retinol from the RBP holoprotein by observing decreases in both protein (340 nm) and retinol (470 nm) fluorescence. We performed a competition binding assay using RBP-retinol/HPR concentrations which were similar to those determined from the 14 day trial at 20 mg/kg HPR described above. […] In the control assays, decreases in retinol fluorescence were associated with concomitant increases in protein fluorescence, see FIG. 3a. This effect was determined to be due to temperature effects as the dissociation constant of RBP-retinol increases (decreased affinity) with increased time at 37 C.

The subject of series [4] is ABCA4−/− mice. The series can be described thus: HPR drug holiday after 28 days of treatment. Format: in vivo, mouse. As to the method: HPR (10 mg/kg in DMSO) was administered to ABCA4−/− mice daily for a period of 28 days. Control ABCA4−/− mice received only DMSO for the same period. […] Importantly, the observed reductions in lipofuscin autofluorescence persist long after cessation of HPR therapy. HPR (10 mg/kg), or DMSO, administration was discontinued following 28 days of treatment and re-evaluated A2E and precursor levels after 2 weeks and after 4 weeks.
We examined eyecup extracts by HPLC and employed detection by absorbance and fluorimetry. Identity of the indicated peaks was confirmed by on-line spectral analysis and by co-elution with authentic standards. […] Further, the A2E and precursor (A2PE-H2 and A2PE) levels after a […] or 28-day drug holiday remained at or near the levels immediately following 28 days of treatment (i.e., ca. 50% reduction relative to control), although after the 28-day drug holiday, the amount of A2E and precursor (A2PE-H2 and A2PE) had increased by a few percentage points relative to the 12-day drug holiday levels. […] It is clear that peak fluorescence tracks with the abundance of A2E, A2PE and A2PE-H2.
This effect cannot be attributed to long-term reductions in serum retinol as serum retinol had returned to baseline 48 hours following the last HPR dose. […] Furthermore, HPR reduces serum retinol levels, which leads to a reduction in the level of retinol in the eyes of treated animals. Once the level of retinol has been reduced in the eye, there is a time lag in the subsequent increase in retinol levels in the eye. Alone or in combination, the production of A2E, A2PE and A2PE-H2 in the eye remains low despite the absence of HPR in the serum or the eye.

`CC1=C(/C=C/C(C)=C/C=C/C(C)=C/C(=O)Nc2ccc(O)cc2)C(C)(C)CCC1` [HPR, N-(4-hydroxyphenyl)retinamide]: in series [1] (Eadie-Hofstee transformation), the “mode of inhibition of LRAT” value is “competitive”. Moreover, the “net retinyl ester synthesis” value in series [1] (bovine RPE microsomes, atROL substrate) is listed as “decreases net retinyl ester synthesis in a concentration-dependent manner”. Moreover, in series [1] (bovine RPE microsomes, atROL substrate, read-out: apparent inhibition constant (Ki), LRAT), the Ki was about 6 µM. Besides, the IC50 in series [1] (membranes from bovine RPE, exogenous all-trans retinol, read-out: half-maximal inhibition of LRAT) was about 20 µM. Also, in series [2], the “binding to apo-CRALBP by absorption spectra of eluted fraction” value is listed as “binds apo-CRALBP”. Besides, the “displacement of retinol from RBP-retinol holoprotein” value in series [3] is “efficiently displaces retinol”. The “reduction of A2E and precursor (A2PE-H2 and A2PE) levels relative to control” value in series [4] (10 mg/kg 28 days, then 12- or 28-day drug holiday) is reported as “ca. 50%”. In addition, in series [4] (28-day drug holiday), the “detection in the eyes after drug holiday” value is given as “unable to detect”. The “time for serum retinol to return to baseline after the last HPR dose” value in series [4] (mouse, in vivo) came to 48 h.

These data come from patent publication US8410168B2, “Methods and compositions for treating ophthalmic conditions with retinyl derivatives” (Acucela, Inc., priority 2004, dated 2013).
